The text below walks through data of patent US6608111B1, “Method for treating or preventing prostatic conditions” (Southern Illinois University Office of Research, …, priority 1998, dated 2003).

The test system of data set [1] is uterine cytosolic estrogen receptors (ER). The note with it: competitive binding-inhibition, relative to E2; cited from earlier work.
A further data set concerns female mice. As to conditions: E2 5 g/animal/day, (±)-Z-BDDA 5, 50, and 500 g/animal/day, versus control group; cited from earlier work.
For data set [2] the following is noted: even at 1000-times the estrogenic dosage; cited from earlier work.
For data set [3] the following is noted: in vivo assays, compared with estradiol; cited from earlier work.
Data set [4] concerns male and female Wistar rats. The data set can be described thus: Experiment 2: chronic treatment of male and female rats, 5-6 weeks. Format: in vivo, rat. As to conditions: for Food intake: n = 5. The protocol: Twenty-five male and 25 female Wistar rats, 7-8 weeks of age, were randomly assigned to groups of five animals, respectively, for treatment with vehicle only (V), estradiol (E), (±)-Z-BDDA, (+)-Z-BDDA, or (−)-Z-BDDA. Each animal in group V received a daily 0.1 cc injection of a 10% ethanol-90% olive oil solution; the other treatments received their respective compound as a daily 0.1 cc injection, e.g., 2.5 μg of compound/g of body weight, in a 10% ethanol-90% olive oil solution. A temperature of 21° C. and an artificial 12-h light-dark cycle were maintained in the animal room. All animals were maintained on standard chow in powdered form, the males for five weeks and the females for six weeks, then sacrificed after an overnight fast under i.p. pentobarbital anesthesia (50 mg/kg). Animal weight and food intake were measured weekly during the study and subsequent FER values were determined. During sacrifice, blood was collected (via cardiac puncture) for glucose, luteinizing hormone, prolactin and testosterone measurements. The amounts of luteinizing hormone, prolactin and testosterone were measured to help elucidate the target tissue of the respective compounds in male and female rats. Immediately following sacrifice the fat pads and reproductive organs were removed and weighed.
(§1) Experiments 1 and 2 employed a randomized design. All data were analyzed by one-way analysis of variance (ANOVA,)and post-hoc comparisons were made with Tukey pairwise comparisons test. Significance was confirmed at p≦0.05 (SYSTAT 7.0, SPSS INC., 1997), and all values are reported as means±standard error of the mean.

Data set [5] deals with male and female Sprague-Dawley rats. The data set can be described thus: Experiment 1: chronic treatment of male and female rats, 4 weeks. Format: in vivo, rat. The note with it: mean ± SEM; for Food intake: n = 5. As to the method:
Twenty-five male and 25 female Sprague-Dawley rats, 9-10 weeks of age, were randomly assigned to groups of five animals, respectively, as a control group (no treatment) (C), for treatment with vehicle only (V), estradiol (E), (±)-Z-BDDA, or (+)-Z-BDDA. Each animal in group V received a daily 0.1 cc injection of a 10% ethanol-90% olive oil solution; the other treatments received their respective compound as a daily 0.1 cc injection, e.g., 2.5 μg of compound/g of body weight, in a 10% ethanol-90% olive oil solution. A temperature of 21° C. and an artificial 12-h light-dark cycle was maintained in the animal room. All animals were maintained on standard chow in powdered form for four weeks, then sacrificed after an overnight fast under i.p. pentobarbital anesthesia (50 mg/kg). Animal weight and food intake were measured weekly during the study, and the subsequent food-efficiency ratio [FER(g of weight change/g of food intake)] was determined. During sacrifice, blood was collected (via cardiac puncture) for cholesterol measurements. Immediately following sacrifice the fat pads and reproductive organs were removed and weighed.
as §1

In data set [6] the test system is MCF-7 human mammary cancer cell line. As to conditions: human MCF-7 cells in culture; cited from earlier work.
Data set [7] concerns rats, cats, chicks, and guinea pigs. As to conditions: animals including rats; cited from earlier work.
Another data set has as its system women. The note with it: clinical; cited from earlier work.
Where [8] appears, read: female rats, 2.5 ug/g of body weight daily, six weeks, mean ± SEM.
Setting [9] is: male rats, 2.5 ug/g of body weight daily, five weeks, mean ± SEM.
The mark [10] stands for this setting: female rats, 2.5 ug/g of body weight daily.
The mark [11] stands for this setting: male rats, 2.5 ug/g of body weight daily.

Entries after “also recorded” stand apart in the source; their conditions may differ.

As for “(±)-Z-bisdehydrodoisynolic acid [(±)-Z-BDDA]”, in [1], the “binding affinity as fraction of that of E2” value was 0.01-0.03. Besides, in the data set with female mice, the “rate of weight gain” value is recorded as “diminished”. For the same molecule, in data set [2], the toxicity and carcinogenicity entry is on record as “neither toxicity nor carcinogenicity”. Besides, in data set [3], the “estrogenicity: vaginal cornification and uterotropism” value is “rivaling or even surpassing estradiol”. For the same molecule, the “Uterus/testis weight (g)” value in data set [4] (female rats (uterus), 2.5 ug/g of body weight daily, six weeks, mean ± SEM) is listed as 4.25 ± 1.04^1 g; in data set [4] (male rats (testis), 2.5 ug/g of body weight daily, five weeks, mean ± SEM) it was 0.78 ± 0.02^1 g; in data set [5] (female rats (uterus), 2.5 ug/g of body weight daily), 2.04 ± 0.45^1 g; in [5] (male rats (testis), 2.5 ug/g of body weight daily), 0.72 ± 0.06^1,2 g. Besides, the figures for the “Blood glucose” value in data set [4] (setting [8]) and in data set [4] (setting [9]) were 80.40 ± 5.66 mg/dL and 98.60 ± 14.00 mg/dL, respectively. Further, the “FER (food efficiency ratio)” value is recorded as 0.017 ± 0.003^1,2 in data set [4] (setting [8]); −0.04 ± 0.01^1,2 in [4] (setting [9]); −0.023 ± 0.027^1 in data set [5] (female rats, 2.5 ug/g of body weight daily, g of weight change/g of food intake); −0.099 ± 0.009^1,2 in data set [5] (setting [11]). Moreover, the “Food intake” value in data set [4] (setting [8]) was found to be 704.0 ± 51.7 g; in data set [4] (setting [9]) it was 530.0 ± 33.0 g; in [5] (female rats, 2.5 ug/g of body weight daily injection) it was 318.2 ± 21.8 g; in data set [5] (setting [11]), 344.6 ± 15.5 g. The “weight gain (percent weight change)” value in data set [4] (female rats, both experiments (FIGS. 2 and 3), 2.5 μg/g daily) was “repress weight gain slightly more than did (+)-Z-BDDA and E2”. The testosterone entry in [4] (male rats, 2.5 μg/g daily, compared to the vehicle) is recorded as “less pronounced”. Moreover, the “Prostate weight” value in [4] (setting [9]) is 0.16 ± 0.02 g. The “Cholesterol (mg/dl)” value in [5] (setting [10]) is 30.1 ± 2.8^1 mg/dl; in data set [5] (setting [11]) it was 36.2 ± 2.6^1,2 mg/dl. In addition, in data set [5] (setting [10]), the “Visceral fat” value worked out at 1.3 ± 0.1 g. The “Prostate weight (g)” value in [5] (setting [11]) was 0.08 ± 0.02^1,2 g. Besides, the “Visceral fat (g)” value in [5] (setting [11]) is 4.5 ± 0.4^2 g. For the same molecule, the “MCF-7 cell proliferation (estrogenicity)” value in data set [6] is “high estrogenic potency”.
On to `CC[C@@H](c1ccc2cc(OC)ccc2c1)C(C)(C)C(=O)O` [compound 2, (−)-3-[2-(6-methoxynaphthyl)]-2,2-dimethyl-pentanoic acid], for which the “estrogenic activity (estrogenicity) in animals” value in data set [7] is listed as “strongest estrogenic activity; also recorded: highly estrogenic in animals, equivalent to 17β-estradiol”. Moreover, the “estrogenic response in women / humans” value with women is “high dosages were required to elicit strong estrogenic responses”. Further, in data set [6], the “MCF-7 cell proliferation (estrogenicity)” value was “very little effect”.
